Source: US10131707B2, “Treatment of sepsis and septic shock” (THE GENERAL HOSPITAL CORPORATION, priority 2014, dated 2018)
“Also recorded” adds a separate entry of the source. Where two headings read alike, the source gives them in different places.

How the values were obtained:
Cit H3 = test: Production of Cit H3 after inhibition of PAD activity (data not shown)
[1] = system: collagen-induced arthritis; conditions: murine; cited from earlier work
[2] = system: mouse model of CLP-induced septic shock; test: Survival in CLP-induced sepsis model, inhibitors given intraperitoneally; type: in vivo, male C57BL/6J mice; conditions: for Survival (in words): i.p. 1 h after CLP, SAHA 50 mg/kg, Cl-amidine 80 mg/kg, up to 10 days, compared with DMSO vehicle
Protocol: Three experiments were carried out. In experiment I, HL-60 neutrophilic cells grown on a coverslip were treated with LPS (100 ng/ml) in the presence or absence of SAHA (5 […]]) for 3 h, and subjected to immuno-staining with anti-Cit H3 antibody to assess effect of SAHA on Cit H3 production under a fluorescence microscope. The ratio of Cit H3 positive cells was calculated as mean±SD (n=3). In experiment II, male C57BL/6J mice were subjected to CLP, and 1 hour later randomly divided into three groups for intraperitoneal injection as follows: (1) dimethyl sulfoxide (DMSO), (2) SAHA (50 mg/kg) in DMSO, and ([…]). In a separate experiment III, the male C57BL/6J mice were divided into control and treatment groups, and subjected to CLP. One hour later, immunoglobulin (IgG) and Cit H3 antibody (20 mg/kg iv; n=5/group) were injected into the control and treatment groups, respectively. All survival was monitored for 5-10 days.
Animals. Male C57B1/6J mice (6-8 weeks) weighing 25-30 g were purchased from Jackson Labs (Bar Harbor, Me.). All animals were housed in plastic cages and had access to chow and water throughout the experiment. They were kept at room temperature (24±2° C.) and exposed to alternative cycles of 12 h light and darkness. During the experiments the animals were monitored up to 10 days, and survival rate was compared between the experimental and control groups.
CLP-induced sepsis model. The CLP murine model,^15 modified as described previously, was used to induce fecal peritonitis.^16 In brief, peritoneal cavity was opened under inhaled isoflurane anesthesia. […]
Administration of inhibitors and experimental design. […] Mortality was recorded for up to 10 days post procedure.
Statistical analysis. Statistical differences were determined by Student t tests and ANOVA for two group and multiple group comparisons respectively (SPSS™ statistical software package, Chicago, Ill.). Kaplan-Meier survival curves were analyzed by using the MedCalc™ Statistical Software (Mariakerke, Belgium) for the in vivo studies. […]

LPS-induced shock = conditions: rodent; cited from earlier work
[3] = system: mouse model of CLP-induced septic shock; conditions: literature reference 10; cited from earlier work
HL-60 neutrophilic cells = test: LPS-induced Cit H3 production and NETs formation in HL-60 cells, immunostaining with anti-Cit H3 antibody; type: cell-based; conditions: LPS 100 ng/ml, 3 h
Protocol: Three experiments were carried out. In experiment I, HL-60 neutrophilic cells grown on a coverslip were treated with LPS (100 ng/ml) in the presence or absence of SAHA (5 […]]) for 3 h, and subjected to immuno-staining with anti-Cit H3 antibody to assess effect of SAHA on Cit H3 production under a fluorescence microscope. The ratio of Cit H3 positive cells was calculated as mean±SD (n=3). In experiment II, male C57BL/6J mice were subjected to CLP, and 1 hour later randomly divided into three groups for intraperitoneal injection as follows: (1) dimethyl sulfoxide (DMSO), (2) SAHA (50 mg/kg) in DMSO, and (3) Cl-amidine ([…]) in DMSO (n=10/group). In a separate experiment III, the male C57BL/6J mice were divided into control and treatment groups, and subjected to CLP. One hour later, immunoglobulin (IgG) and Cit H3 antibody (20 mg/kg iv; n=5/group) were injected into the control and treatment groups, respectively. All survival was monitored for 5-10 days.
Cell culture and treatment. HL-60 cells obtained from American Type Culture Collection (ATCC) were maintained in Iscove's modified DMEM medium (Invitrogen Life Technologies, Carlsbad, Calif.) supplemented with 20% fetal bovine serum (FBS). […] The ratio of Cit H3 positive stained cells to all cells was counted and calculated as mean±SD from three individual experiments.

## NC(=O)[C@H](CCCN=C(N)CCl)NC(=O)c1ccccc1 [Cl-amidine]
Cit H3
  Production of Cit H3: reduce the production of Cit H3
[1]
  Severity of collagen-induced arthritis: reduce the severity
[2]; 80 mg/kg i.p. 1 h after CLP, monitored 10 days, n=10, DMSO vehicle 0%
  Survival: 42.5%
[2]
  Survival (in words): notably improved long term survival; also recorded: significantly improved survival

## O=C(CCCCCCC(=O)Nc1ccccc1)NO [SAHA, suberoylanilide hydroxamic acid]
LPS-induced shock
  Survival: significantly improves survival
[3]
  Survival: improves survival
[2]
  Survival (in words): notably improved long term survival
HL-60 neutrophilic cells; ATRA-differentiated HL-60 cells, with or without SAHA, n=3, P<0.05
  LPS-induced Cit H3 production (ratio of Cit H3 positive cells to all cells): inhibited H3 citrullination significantly; also recorded: suppresses LPS-induced Cit H3 production
HL-60 neutrophilic cells; HL-60 neutrophilic cells
  NETs formation after LPS insult: significantly inhibited
